Reference: patent US7329518B2, “Enzyme for producing optically active pyridineethanol derivatives” (Kaneka Corporation, priority 1999, dated 2008)

B1: FPDH: purified NADH-dependent enzyme from Candida maris IFO 10003 reducing 5-acetylfuro[2,3-c]pyridine to the (R)-alcohol; SEQ ID NO:1 (protein, listed as Candida maris)
chain: MSYNFANKVLIVTGGLSGIGLAVAKKFLQLGAKVTISDISATEKYNTVVGEFKTEGIDVKNVQYIQADASKEADNEKLISETLSAFGDLDYVCANAGIATFTQTTDISYDVWRKVTSINLDGVFMLDKLAAQYFLSKNKPGAIVNMGSIHSYVAAPGLSHYGAAKGGLKLLTQTMALEYAAKGIRVNSVNPGYIKTPLLDICPKEHMDYLITQHPIGRLGKPEEIASAVAFLCSDEATFINGISLLVDGGYTAR

Experiments:
FPDH [1] = assay: Oxidation activity of FPDH against various compounds as substrates; type: biochemical, Candida maris IFO 10003; details: substrate 1 mM; 5-(1-(R)-hydroxyethyl)furo[2,3-c]pyridine = 100%; 0.25 mM NAD+, pH 8.0, 30° C.
Procedure: Further, FPDH was examined for oxidation activity against various compounds. The oxidation activity was measured by allowing the reaction to proceed at 30° C. for 3 minutes in 3.0 ml of a reaction mixture containing 1 mM substrate, 0.25 mM NAD^+, 0.3% (vol/vol) dimethyl sulfoxide and 0.05 ml of the enzyme solution in 100 mM phosphate buffer (pH 8.0) and measuring the increase in absorbance at the wavelength 340 nm. These conditions were employed as standard reaction conditions for oxidizing activity substrate measurement. The enzyme activity reducing 1 μmole of NAD^+ to NADH in one minute under these reaction conditions was defined as 1 unit. The data shown in Table 10 are relative activities with the oxidation activity against the substrate 5-(1-(R)-hydroxyethyl)furo[2,3-c]pyridine being taken as 100%.

FPDH [2] = assay: Optimal temperature and optimal pH for the activity of FPDH; type: biochemical, Candida maris IFO 10003; details: pH varied 3.5 to 9.0; acetate, phosphate and Tris-hydrochloride buffer
Procedure: Hereafter, the reducing activity was measured by allowing the reaction to proceed at 30° C. for 3 minutes in 3.0 ml of a reaction mixture containing 1 mM 5-acetylfuro[2,3-c]pyridine (substrate), 0.25 mM NADH, 0.3% (vol/vol) dimethyl sulfoxide and 0.05 ml of the enzyme solution in 100 mM phosphate buffer (pH 6.5) and measuring the decrease in absorbance at the wavelength 340 nm. These conditions were employed as standard reaction conditions for reducing activity measurement. The enzyme activity oxidizing 1 μmole of NADH to NAD^+ in one minute under these reaction conditions was defined as 1 unit.
Activity measurements were conducted under the standard reaction conditions for reducing activity measurement as described in Example 14 except that the temperature alone was varied from 20 to 80° C.
Activity measurements were conducted under the standard reaction conditions for reducing activity measurement as described in Example 14 while varying the pH within the range of 3.5 to 9.0 using acetate buffer, phosphate buffer and Tris-hydrochloride buffer as the buffer solution.

Molecule	Relative activity (oxidation activity) (FPDH [1])	Optimal pH (FPDH [2])
CC(O)CCc1ccccc1 (centres unmarked) [4-Phenyl-2-butanol]	219%	
C[C@@H](O)c1ccccc1 [(R)-1-Phenylethanol]	225%	
C[C@@H](O)c1cc2ccoc2cn1 [(R)-5-(1-Hydroxyethyl)furo[2,3-c]pyridine]	100%	
CC(C)O [Isopropanol]	226%	
B1		5.0-6.0
